# Reference: patent US7030067B2, “Bis(perfluoroalkanesulfonyl)imides and their salts as surfactants/additives for applications having extreme environments and methods therefor” (priority 2001, dated 2006)
# Entries after “also recorded” stand apart in the source; their conditions may differ.
# What was measured:
# [1] = Surface tension determination in water (Kruss K12 Tensiometer, Wilhelmy plate); assay type: physicochemical; conditions: for surface tension versus concentration profile, comparison in words: FIG. 1, 2, 3, 5
# Procedure: Test Procedure I—Surface Tension Determination
# (§1) All surface tensions were determined using a Kruss K12 Tensiometer. The tensiometer was integrated with an automatic dosimat and a computer, using a software package for dynamic contact angle (K121). The program was run using a Wilhelmy platinum plate (PL12) and glass sample vessel (GL7). All parts referenced above including instrument and computer are available from Kruss USA, Charlotte, N.C.
# [2] = Surface tension measurements in tributyl phosphate; assay type: physicochemical; conditions: 2000 ppm in tributyl phosphate
# Procedure: as §1
# Surface tension measurements were obtained as described above with the exception that the measurments were obtained in tributyl phosphate.
# [3] = DC conductivity of potassium salts in tributylphosphate; assay type: physicochemical; conditions: 3000 ppm in tributyl phosphate, 21.6-21.9° C.
# Excerpt: Four tributylphosphate samples, with or without dissolved anti-erosion additives, measured for DC conductivity. The four samples were neat tributyl phosphate (control), tributyl phosphate with 3000 ppm FC-98, tributyl phosphate with 3000 ppm PBSK, and tributyl phosphate with 3000 ppm potassium bis(perfluorobutanesulfonyl)imide (DBIK).
# The conductivity probe was carefully cleaned with EM Science OMNISOLV™ grade methanol, dried in a clean nitrogen stream, and allowed to equilibrate back to ambient temperature between samples.
# [4] = Bioelimination study, fluorochemical sulfonate in male rat liver tissue; assay type: in vivo; conditions: for factor lower than C8F17SO3− / factor lower than C6F13SO3−: liver amount; for Amount of Sulfonate, Day 1 / Amount of Sulfonate, Day 14 / Amount of Sulfonate, Day 28: male rat liver tissue, dose 30 (C4), 10 (C6), 3 (C8) mg/kg body weight/day; for Amount of Sulfonate, Day 1: Day 1 following completion of feeding; for Amount of Sulfonate, Day 1N / Amount of Sulfonate, Day 14N / Amount of Sulfonate, Day 28N: male rat liver, normalized to a feeding level of 3 mg/kg body weight per day; for elimination from the body, in words: tested in the form of its potassium salt
# Procedure: Comparative study of potassium perfluorobutanesulfonate (using a dose level of 30 mg/kg body weight/day), potassium perfluorohexanesulfonate (using a dose level of 10 mg/kg body weight/day), and potassium perfluorooctanesulfonate (using a dose level of 3 mg/kg body weight/day).
# [5] = Solubility in 10/1 buffered oxide etch solution
# [6] = 28 days following completion of feeding
# [7] = 28 days following completion of feeding, after normalization to the same feeding levels
# [8] = immediately following completion of feeding
molecule,measurement,setting,value
"O=S(=O)([N-]S(=O)(=O)C(F)(F)C(F)(F)C(F)(F)C(F)(F)F)C(F)(F)C(F)(F)C(F)(F)C(F)(F)F.O=S(=O)([N-]S(=O)(=O)C(F)(F)C(F)(F)C(F)(F)C(F)(F)F)C(F)(F)C(F)(F)C(F)(F)C(F)(F)F.[Mg+2] [Mg (DBI)2, Mg^+2[^−N(SO2C4F9)2]2]",surface tension,[1]; 200 ppm,46.6 dyne/cm
same,surface tension,[1]; 450 ppm,40.2 dyne/cm
same,surface tension,[1]; 960 ppm,35.0 dyne/cm
same,surface tension,[1]; 1300 ppm,32.0 dyne/cm
same,surface tension,[1]; 1700 ppm,29.0 dyne/cm
same,surface tension,[1]; 2600 ppm,26.3 dyne/cm
same,Surface Tension @ 2000 ppm,[2],27.04 dyne/cm
O=S(=O)([O-])C(F)(F)C(F)(F)C(F)(F)C(F)(F)C(F)(F)C(F)(F)C(F)(F)C(F)(F)F.O=S(=O)([O-])C(F)(F)C(F)(F)C(F)(F)C(F)(F)C(F)(F)C(F)(F)C(F)(F)C(F)(F)F.[Mg+2] [Mg(C8F17SO3)2],Surface Tension @ 2000 ppm,[2],27.36 dyne/cm
"O=S(=O)([N-]S(=O)(=O)C(F)(F)C(F)(F)C(F)(F)C(F)(F)F)C(F)(F)C(F)(F)C(F)(F)C(F)(F)F.[K+] [C4F9SO2NKSO2C4F9, potassium bis(perfluorobutanesulfonyl)imide]",surface tension (surface energy),[1]; 10 ppm,61.85 dynes/cm
same,surface tension (surface energy),[1]; 100 ppm,41.61 dynes/cm
same,surface tension (surface energy),[1]; 1000 ppm,34.02 dynes/cm
same,"surface tension versus concentration profile, comparison in words",[1],surface tensions significantly less than PBSK and comparable to potassium perfluorooctanesulfonate at equal concentrations; also recorded: the same or better surface tension in water as C8F17SO3K
same,Surface Tension @ 2000 ppm,[2],27.34 dyne/cm
same,Observed Conductivity,[3],13.8 uS/cm
"O=S(=O)([O-])C1(F)C(F)(F)C(F)(F)C(F)(C(F)(F)C(F)(F)F)C(F)(F)C1(F)F.[K+] (stereo not drawn) [FC-98, Potassium perfluoroethylcyclohexanesulfonate]",Surface Tension @ 2000 ppm,[2],26.94 dyne/cm
same,Observed Conductivity,[3],3.2 uS/cm
O=S(=O)([O-])C(F)(F)C(F)(F)C(F)(F)C(F)(F)C(F)(F)C(F)(F)C(F)(F)C(F)(F)F.O=S(=O)([O-])C(F)(F)C(F)(F)C(F)(F)C(F)(F)C(F)(F)C(F)(F)C(F)(F)C(F)(F)F.[Ca+2] [Ca(C8F17SO3)2],Surface Tension @ 2000 ppm,[2],26.15 dyne/cm
O.O.O.O.O.O.O=S(=O)([O-])C(F)(F)C(F)(F)C(F)(F)C(F)(F)F.O=S(=O)([O-])C(F)(F)C(F)(F)C(F)(F)C(F)(F)F.[Mg+2] [Mg(SO3C4F9)2 · 6H2O],Surface Tension @ 2000 ppm,[2],26.93 dyne/cm
"O=S(=O)([O-])C(F)(F)C(F)(F)C(F)(F)C(F)(F)C(F)(F)C(F)(F)F.[K+] [C6F13SO3^−, potassium perfluorohexanesulfonate]",factor lower than C8F17SO3−,[4]; [6],6.5
same,factor lower than C8F17SO3−,[4]; [7],21.5
same,factor lower than C8F17SO3−,[4]; [8],1.3
same,"Amount of Sulfonate, Day 1",[4],327 ± 52 ppm
same,"Amount of Sulfonate, Day 14",[4],61.9 ± 11.7 ppm
same,"Amount of Sulfonate, Day 28",[4],36.3 ± 7.4 ppm
same,"Amount of Sulfonate, Day 1N",[4],98 ppm
same,"Amount of Sulfonate, Day 14N",[4],19 ppm
same,"Amount of Sulfonate, Day 28N",[4],11 ppm
"O=S(=O)([N-]S(=O)(=O)C(F)(F)C(F)(F)C(F)(F)C(F)(F)F)C(F)(F)C(F)(F)C(F)(F)C(F)(F)F.[Li+] [DBI-Li, Lithium bis(perfluorobutanesulfonyl)imide]",surface tension,[1]; 200 ppm,53.2 dyne/cm
same,surface tension,[1]; 450 ppm,48.1 dyne/cm
same,surface tension,[1]; 960 ppm,42.8 dyne/cm
same,surface tension,[1]; 1300 ppm,41.5 dyne/cm
same,surface tension,[1]; 1700 ppm,39.1 dyne/cm
same,surface tension,[1]; 2600 ppm,36.0 dyne/cm
same,"surface tension versus concentration profile, comparison in words",[1],significantly lower surface tensions than the shorter chain homologues
"O=S(=O)([O-])C(F)(F)C(F)(F)C(F)(F)C(F)(F)C(F)(F)C(F)(F)C(F)(F)C(F)(F)F.[K+] [Example C8F17SO3K, Potassium perfluorooctanesulfonate]","Amount of Sulfonate, Day 1",[4],419 ± 86 ppm
same,"Amount of Sulfonate, Day 14",[4],309 + 34 ppm
same,"Amount of Sulfonate, Day 28",[4],237 ± 25 ppm
same,"Amount of Sulfonate, Day 1N",[4],419 ppm
same,"Amount of Sulfonate, Day 14N",[4],309 ppm
same,"Amount of Sulfonate, Day 28N",[4],237 ppm
same,surface tension (surface energy),[1]; 10 ppm,67.68 dynes/cm
same,surface tension (surface energy),[1]; 100 ppm,54.09 dynes/cm
same,surface tension (surface energy),[1]; 1000 ppm,33.17 dynes/cm
same,Surface Tension @ 2000 ppm,[2],26.96 dyne/cm
"O=S(=O)([O-])C(F)(F)C(F)(F)C(F)(F)C(F)(F)F.[K+] [Example C4F9SO3K, Potassium perfluorobutanesulfonate]",factor lower than C6F13SO3−,[4]; [6],> 1400
same,factor lower than C6F13SO3−,[4]; [7],4400
same,factor lower than C6F13SO3−,[4]; [8],> 100
same,"Amount of Sulfonate, Day 1",[4],3.09 ± 1.58 ppm
same,"Amount of Sulfonate, Day 14",[4],0.126 ± 0.084 ppm
same,"Amount of Sulfonate, Day 28",[4],0.025 ± 0.015 ppm
same,"Amount of Sulfonate, Day 1N",[4],0.31 ppm
same,"Amount of Sulfonate, Day 14N",[4],0.0126 ppm
same,"Amount of Sulfonate, Day 28N",[4],0.0025 ppm
same,"elimination from the body, in words",[4]; listed as C4F9SO3^−,unexpectedly fast and effective elimination
same,"elimination from the body, in words",[4]; listed as perfluorobutanesulfonate,eliminates from the body more rapidly than perfluorohexanesulfonate and much more rapidly than perfluorooctanelsulfonate
same,surface tension (surface energy),[1]; 10 ppm,70 dynes/cm
same,surface tension (surface energy),[1]; 100 ppm,67.5 dynes/cm
same,surface tension (surface energy),[1]; 1000 ppm,53 dynes/cm
same,"surface tension versus concentration profile, comparison in words",[1],less effective than perfluorooctanesulfonate in lowering the surface tension of water
same,Surface Tension @ 2000 ppm,[2],27.32 dyne/cm
same,Observed Conductivity,[3],3.5 uS/cm
"N.O=S(=O)(NS(=O)(=O)C(F)(F)C(F)(F)C(F)(F)C(F)(F)F)C(F)(F)C(F)(F)C(F)(F)C(F)(F)F [DBI-NH4, NH4^+−N(SO2C4F9)2]",surface tension,[1]; 200 ppm,48.6 dyne/cm
same,surface tension,[1]; 450 ppm,44.1 dyne/cm
same,surface tension,[1]; 960 ppm,40.1 dyne/cm
same,surface tension,[1]; 1300 ppm,38.7 dyne/cm
same,surface tension,[1]; 1700 ppm,35.9 dyne/cm
same,surface tension,[1]; 2600 ppm,31.5 dyne/cm
same,"surface tension versus concentration profile, comparison in words",[1],better surfactants than NH4^+−OSO2C8F17
"O=S(=O)(NS(=O)(=O)C(F)(F)C(F)(F)C(F)(F)C(F)(F)F)C(F)(F)C(F)(F)C(F)(F)C(F)(F)F [bis(perfluorobutanesulfonyl)imide, HN(SO2C4F9)2]",appearance of solution,[5]; 1000 ppm,slightly hazy to the eye
same,"surface tension versus concentration profile, comparison in words",[1],better surfactants than NH4^+−OSO2C8F17
"N.O=S(=O)(O)C(F)(F)C(F)(F)C(F)(F)C(F)(F)C(F)(F)C(F)(F)C(F)(F)C(F)(F)F [FC-93, ammonium perfluorooctanesulfonate]",solubility in buffered oxide etch,[5]; all concentrations (FIG. 4),precipitated
[^−N(SO2C4F9)2]2 (+)H3NCH(CH3)CH2[OCH(CH3)CH2]a[OCH2CH2]8.5[OCH(CH3)CH2]CNH3(+) (a+c=2.5) [(DBI)2 JEFFAMINE ™ ED600],surface tension (surface energy),[1]; 10 ppm,57.4 dynes/cm
same,surface tension (surface energy),[1]; 100 ppm,40.7 dynes/cm
same,surface tension (surface energy),[1]; 1000 ppm,32.7 dynes/cm
same,"surface tension versus concentration profile, comparison in words",[1],significantly lower surface tensions than C4F9SO3K
